Data published in patent publication US6326023A, “Synergistic anti-malarial formulation” (priority 2000, dated 2001).

Experiments:
[1] = system: P. yoelii nigeriensis (MDR II); assay: Blood schizonticidal activity of α/β arteether formulation in neutralized oil by oral route in infected Swiss mice; assay type: in vivo, P. yoelii nigeriensis (MDR II) in Swiss mice
Description: Efficacy of oral administration of arteether formulation for control of blood induced multi-drug resistant P. yoebi nigerensis (MDR II) in Swiss mice (25±g) was evaluated. The mice was infected intraperitoneafly with 1×10^5 parasitized RBC, and drug treatment 10,15,20 and 30 mg/kg was given once daily for five consecutive days (starting from day 0 to day 4). Blood smears made from tail blood and stained with giemsa were examined periodically till 28 days of infection to record parasitaemia levels and number of surviving/cured mice till 28 days.

[2] = system: P. yoelii nigeriensis; conditions: intramuscular; chloroquine, mefloquine and quinine resistant strain; cited from earlier work
[3] = system: P. yoelli nigeriensis (MDR II); assay: Blood schizonticidal activity of oral arteether formulation prepared in DMSO-distilled water in infected Swiss mice; assay type: in vivo, P. yoelli nigeriensis (MDR II) in Swiss mice; conditions: for Bioavailability by oral route: suspension in DMSO/distilled water
Description: Swiss mice 25±1 gm infected intraperitoneally with 1×10^7 parasitized rbcs were administered α/β formulation, prepared in DMSO (3-4 drop) and then suspended in distilled water by oral administration at various doses ranging between 40-100 mg/kg for 5 consecutive days.
Parasitaemia was recorded periodically from tail blood smears upto 28 days of observation. Both 60 and 80 mg/kg×5 doses were able to eliminate the prasitaemia upto 28 days of observation and were curative. […] A very high dose is required for curative action against MDR of infection and its bioavailability by oral route as suspension in D.W. is low.

[4] = system: P. knowlesi/P. fragile; conditions: intramuscular, rhesus monkey; cited from earlier work
[5] = system: P. yoelli nigeriensis (MDR II); assay: Blood schizontocidal action of arteether α/β formulation by rectal route in infected Swiss mice; assay type: in vivo, P. yoelli nigeriensis (MDR II) in Swiss mice
Description: α,β-Arteether mixture dissolved in neutralized ground-nut oil was administered to P. yoelli nigeriewis (MDR II) infected mice at 10 mg/kg to 20 mg/kg dose from day 0 to day 2 (for 3 consecutive days) by intra-rectal route. Drug was administered with 0.05-0.25 ml oil (vehicle) in single dose or in 2 divided dose daily. Parasitaemia was recorded daily from tail blood smears stained with Giemsa stain and results are given as % parasitaemia (means±SD). […] Presumptive arteether rectal formulation or suppository administration can save mortality in severe/complicated cases. α/β Arteether rectal route controls the severity of infection and prevents mortality in severe complicated comatose malaria cases and will be specially useful in infants, children and those having frequent vomiting and can not be given oral formulation initially. […] Rectal route α/β arteether formulation remains 1st line of emergency treatment of comatose P. falciparum cases in areas of MDR.

Question: What does the source list for `CCOC1O[C@@H]2O[C@@]3(C)CC[C@H]4[C@H](C)CC[C@@H]([C@H]1C)[C@@]24OO3` (stereo partly drawn) [α/β arteether]?
Answer: Parasitaemia (mean ± SD) ([1]; 10 mg/kg × 5 days, Day 6): 0.9 ± 1.0%; Parasitaemia (mean ± SD) ([1]; 10 mg/kg × 5 days, Day 9): 41 ± 32.8%; Parasitaemia (mean ± SD) ([1]; 10 mg/kg × 5 days, Day 12): 0.0%; Number of mice surviving ([1]; 10 mg/kg × 5 days, Day 12, of 8): 2; Parasitaemia (mean ± SD) ([1]; 10 mg/kg × 5 days, Day 14): 0.0%; Number of mice surviving ([1]; 10 mg/kg × 5 days, Day 14, of 8): 2; Parasitaemia (mean ± SD) ([1]; 10 mg/kg × 5 days, Day 28): 0.0%; Number of mice surviving ([1]; 10 mg/kg × 5 days, Day 28, of 8): 2; Parasitaemia (mean ± SD) ([1]; 15 mg/kg × 5 days, Day 6): 0.0%; Parasitaemia (mean ± SD) ([1]; 15 mg/kg × 5 days, Day 9): 5.12 ± 5.7%; Parasitaemia (mean ± SD) ([1]; 15 mg/kg × 5 days, Day 12): 0.0%; Number of mice surviving ([1]; 15 mg/kg × 5 days, Day 12, of 8): 4; Parasitaemia (mean ± SD) ([1]; 15 mg/kg × 5 days, Day 14): 0.0%; Number of mice surviving ([1]; 15 mg/kg × 5 days, Day 14, of 8): 4; Parasitaemia (mean ± SD) ([1]; 15 mg/kg × 5 days, Day 28): 0.0%; Number of mice surviving ([1]; 15 mg/kg × 5 days, Day 28, of 8): 4; Parasitaemia (mean ± SD) ([1]; 20 mg/kg × 5 days, Day 6): 0.0%; Parasitaemia (mean ± SD) ([1]; 20 mg/kg × 5 days, Day 9): 3.75 ± 10.6%; Parasitaemia (mean ± SD) ([1]; 20 mg/kg × 5 days, Day 12): 18.8 ± 32.5%; Parasitaemia (mean ± SD) ([1]; 20 mg/kg × 5 days, Day 14): 0.0%; Number of mice surviving ([1]; 20 mg/kg × 5 days, Day 14, of 8): 5; Parasitaemia (mean ± SD) ([1]; 20 mg/kg × 5 days, Day 28): 0.0%; Number of mice surviving ([1]; 20 mg/kg × 5 days, Day 28, of 8): 5; Parasitaemia (mean ± SD) ([1]; 30 mg/kg × 5 days, Day 6): 0.0%; Parasitaemia (mean ± SD) ([1]; 30 mg/kg × 5 days, Day 9): 0.0%; Parasitaemia (mean ± SD) ([1]; 30 mg/kg × 5 days, Day 12): 0.0%; Parasitaemia (mean ± SD) ([1]; 30 mg/kg × 5 days, Day 14): 0.0%; Number of mice surviving ([1]; 30 mg/kg × 5 days, Day 14, of 8): 8; Parasitaemia (mean ± SD) ([1]; 30 mg/kg × 5 days, Day 28): 0.0%; Number of mice surviving ([1]; 30 mg/kg × 5 days, Day 28, of 8): 8; Antimalarial activity [2]: shows antimalarial activity; minimal effective dose ([3]; Plasmodium yoelii, po, read-out: Curative dose / dose needed for total clearance): 60 mg/kg; Parasitaemia ([3]; oral, DMSO-distilled water, 40 mg/kg × 5, Day 4): Nil; Parasitaemia ([3]; oral, DMSO-distilled water, 40 mg/kg × 5, Day 7): Nil; Parasitaemia ([3]; oral, DMSO-distilled water, 40 mg/kg × 5, Day 10): 3.86%; Parasitaemia ([3]; oral, DMSO-distilled water, 40 mg/kg × 5, Day 14): 3.5 ± 8.5%; Parasitaemia ([3]; oral, DMSO-distilled water, 40 mg/kg × 5, Day 21): Nil; Parasitaemia ([3]; oral, DMSO-distilled water, 40 mg/kg × 5, Day 28): Nil; Suppression of parasitaemia ([3]; oral, DMSO-distilled water, 40 mg/kg × 5, MDR strain): transient suppression of parasitaemia, but was not curative; Parasitaemia ([3]; oral, DMSO-distilled water, 60 mg/kg × 5, Day 4): Nil; Parasitaemia ([3]; oral, DMSO-distilled water, 60 mg/kg × 5, Day 7): Nil; Parasitaemia ([3]; oral, DMSO-distilled water, 60 mg/kg × 5, Day 10): Nil; Parasitaemia ([3]; oral, DMSO-distilled water, 60 mg/kg × 5, Day 14): Nil; Parasitaemia ([3]; oral, DMSO-distilled water, 60 mg/kg × 5, Day 21): Nil; Parasitaemia ([3]; oral, DMSO-distilled water, 60 mg/kg × 5, Day 28): Nil; Parasitaemia ([3]; oral, DMSO-distilled water, 80 mg/kg × 5, Day 4): Nil; Parasitaemia ([3]; oral, DMSO-distilled water, 80 mg/kg × 5, Day 7): Nil; Parasitaemia ([3]; oral, DMSO-distilled water, 80 mg/kg × 5, Day 10): Nil; Parasitaemia ([3]; oral, DMSO-distilled water, 80 mg/kg × 5, Day 14): Nil; Parasitaemia ([3]; oral, DMSO-distilled water, 80 mg/kg × 5, Day 21): Nil; Parasitaemia ([3]; oral, DMSO-distilled water, 80 mg/kg × 5, Day 28): Nil; Parasitaemia ([3]; oral, DMSO-distilled water, 100 mg/kg × 5, Day 4): Nil; Parasitaemia ([3]; oral, DMSO-distilled water, 100 mg/kg × 5, Day 7): Nil; Parasitaemia ([3]; oral, DMSO-distilled water, 100 mg/kg × 5, Day 10): Nil; Parasitaemia ([3]; oral, DMSO-distilled water, 100 mg/kg × 5, Day 14): Nil; Parasitaemia ([3]; oral, DMSO-distilled water, 100 mg/kg × 5, Day 21): Nil; Parasitaemia ([3]; oral, DMSO-distilled water, 100 mg/kg × 5, Day 28): Nil; Curative action (elimination of parasitaemia) ([3]; oral, DMSO-distilled water, 60 and 80 mg/kg × 5, upto 28 days): curative; Bioavailability by oral route [3]: low; Bioavailability by oral route ([3]; listed as arteether α/β): of lower order; Cure of experimental cerebral malaria [4]: cures experimental cerebral malaria infections; Drug absorption by rectal route ([5]; neutralized ground-nut oil, rectal): fairly rapid; Parasitaemia (mean ± SD) ([5]; rectal, 10 mg/kg × 3 days in 2 divided doses at 6 hrs, Day 4): 0.0%; Parasitaemia (mean ± SD) ([5]; rectal, 10 mg/kg × 3 days in 2 divided doses at 6 hrs, Day 5): 0.0%; Parasitaemia (mean ± SD) ([5]; rectal, 10 mg/kg × 3 days in 2 divided doses at 6 hrs, Day 11): 10.25 ± 10.0%; Parasitaemia (mean ± SD) ([5]; rectal, 10 mg/kg × 3 days in 2 divided doses at 6 hrs, Day 28): 0.0%; Number of animals (in parenthesis) ([5]; rectal, 10 mg/kg × 3 days in 2 divided doses, Day 11, 8 at Day 5): 4; Number of animals (in parenthesis) ([5]; rectal, 10 mg/kg × 3 days in 2 divided doses, Day 28, 8 at Day 5): 1; Parasitaemia (mean ± SD) ([5]; rectal, 10 mg/kg × 3 days, Day 4): 0.0002 ± 0.001%; Number of animals negative (-ve) ([5]; rectal, 10 mg/kg × 3 days, Day 4, of 8): 6; Parasitaemia (mean ± SD) ([5]; rectal, 10 mg/kg × 3 days, Day 5): 0.002 ± 0.080%; Number of animals negative (-ve) ([5]; rectal, 10 mg/kg × 3 days, Day 5, of 8): 6; Parasitaemia (mean ± SD) ([5]; rectal, 10 mg/kg × 3 days, Day 11): 0.0%; Number of animals (in parenthesis) ([5]; rectal, 10 mg/kg × 3 days, Day 11, 8 at Day 5): 3; Parasitaemia (mean ± SD) ([5]; rectal, 10 mg/kg × 3 days, Day 28): 0.0%; Number of animals (in parenthesis) ([5]; rectal, 10 mg/kg × 3 days, Day 28, 8 at Day 5): 3; Parasitaemia (mean ± SD) ([5]; rectal, 15 mg/kg × 3 days in 2 divided doses at 6 hrs, Day 4): 0.0%; Parasitaemia (mean ± SD) ([5]; rectal, 15 mg/kg × 3 days in 2 divided doses at 6 hrs, Day 5): 0.0%; Parasitaemia (mean ± SD) ([5]; rectal, 15 mg/kg × 3 days in 2 divided doses at 6 hrs, Day 11): 0.0%; Parasitaemia (mean ± SD) ([5]; rectal, 15 mg/kg × 3 days in 2 divided doses at 6 hrs, Day 28): 0.0%; Number of animals (in parenthesis) ([5]; rectal, 15 mg/kg × 3 days in 2 divided doses, Day 11, 8 at Day 5): 4; Number of animals (in parenthesis) ([5]; rectal, 15 mg/kg × 3 days in 2 divided doses, Day 28, 8 at Day 5): 4; Parasitaemia (mean ± SD) ([5]; rectal, 15 mg/kg × 3 days, Day 4): 0.0%; Parasitaemia (mean ± SD) ([5]; rectal, 15 mg/kg × 3 days, Day 5): 0.0%; Parasitaemia (mean ± SD) ([5]; rectal, 15 mg/kg × 3 days, Day 11): 0.0%; Number of animals (in parenthesis) ([5]; rectal, 15 mg/kg × 3 days, Day 11, 8 at Day 5): 4; Parasitaemia (mean ± SD) ([5]; rectal, 15 mg/kg × 3 days, Day 28): 0.0%; Number of animals (in parenthesis) ([5]; rectal, 15 mg/kg × 3 days, Day 28, 8 at Day 5): 4; Parasitaemia (mean ± SD) ([5]; rectal, 20 mg/kg × 3 days in 2 divided doses at 6 hrs, Day 4): 0.0%; Parasitaemia (mean ± SD) ([5]; rectal, 20 mg/kg × 3 days in 2 divided doses at 6 hrs, Day 5): 0.0%; Parasitaemia (mean ± SD) ([5]; rectal, 20 mg/kg × 3 days in 2 divided doses at 6 hrs, Day 11): 0.0%; Parasitaemia (mean ± SD) ([5]; rectal, 20 mg/kg × 3 days in 2 divided doses at 6 hrs, Day 28): 0.0%; Number of animals (in parenthesis) ([5]; rectal, 20 mg/kg × 3 days in 2 divided doses, Day 11, 8 at Day 5): 6; Number of animals (in parenthesis) ([5]; rectal, 20 mg/kg × 3 days in 2 divided doses, Day 28, 8 at Day 5): 6; Parasitaemia (mean ± SD) ([5]; rectal, 20 mg/kg × 3 days, Day 4): 0.0%; Parasitaemia (mean ± SD) ([5]; rectal, 20 mg/kg × 3 days, Day 5): 0.0%; Parasitaemia (mean ± SD) ([5]; rectal, 20 mg/kg × 3 days, Day 11): 0.0%; Number of animals (in parenthesis) ([5]; rectal, 20 mg/kg × 3 days, Day 11, 8 at Day 5): 5; Parasitaemia (mean ± SD) ([5]; rectal, 20 mg/kg × 3 days, Day 28): 0.0%; Number of animals (in parenthesis) ([5]; rectal, 20 mg/kg × 3 days, Day 28, 8 at Day 5): 5; Suppression of parasitaemia after treatment ([5]; rectal, 10.0, 15.0 and 20.0 mg/kg, upto 5 days): suppressed the parasitaemia
